Tests used:
[1] = molecular target: T1, Peroxisome proliferator-activated receptor alpha (Homo sapiens, UniProt Q07869); assay: Agonist activity at PPARalpha (unknown origin)
T1 sequence (Q07869 whole entry): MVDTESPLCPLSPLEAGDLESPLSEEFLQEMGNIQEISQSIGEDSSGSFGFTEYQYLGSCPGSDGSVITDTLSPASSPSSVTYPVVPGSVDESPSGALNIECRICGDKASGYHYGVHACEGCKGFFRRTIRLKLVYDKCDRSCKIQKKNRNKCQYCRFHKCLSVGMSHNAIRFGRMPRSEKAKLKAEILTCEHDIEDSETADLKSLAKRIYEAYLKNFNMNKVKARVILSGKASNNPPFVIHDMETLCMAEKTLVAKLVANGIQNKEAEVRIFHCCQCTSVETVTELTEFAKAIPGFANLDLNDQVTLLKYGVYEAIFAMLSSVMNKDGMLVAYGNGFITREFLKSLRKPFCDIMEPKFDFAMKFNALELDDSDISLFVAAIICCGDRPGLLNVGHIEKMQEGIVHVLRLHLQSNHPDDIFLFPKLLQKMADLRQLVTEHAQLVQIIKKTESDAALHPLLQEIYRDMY

[2] = molecular target: T2, Peroxisome proliferator-activated receptor gamma (Homo sapiens, UniProt P37231); assay: Agonist activity at PPARgamma (unknown origin)
T2 sequence (P37231 whole entry): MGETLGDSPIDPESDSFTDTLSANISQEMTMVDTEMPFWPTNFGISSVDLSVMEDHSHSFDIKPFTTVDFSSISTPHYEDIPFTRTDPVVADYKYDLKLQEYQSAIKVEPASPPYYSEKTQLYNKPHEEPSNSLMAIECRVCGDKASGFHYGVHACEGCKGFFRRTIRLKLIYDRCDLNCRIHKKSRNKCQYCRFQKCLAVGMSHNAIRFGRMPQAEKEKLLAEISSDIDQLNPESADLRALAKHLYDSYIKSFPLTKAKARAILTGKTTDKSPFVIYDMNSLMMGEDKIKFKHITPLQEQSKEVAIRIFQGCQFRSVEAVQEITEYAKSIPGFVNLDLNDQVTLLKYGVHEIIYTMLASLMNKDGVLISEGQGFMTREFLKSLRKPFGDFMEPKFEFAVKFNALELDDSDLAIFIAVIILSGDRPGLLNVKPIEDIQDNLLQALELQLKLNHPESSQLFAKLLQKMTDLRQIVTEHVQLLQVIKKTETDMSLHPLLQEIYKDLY

[3] = Metabolic stability in rat liver microsomes assessed as half life preincubated for 5 mins followed by NADPH addition and measured upto 60 mins by LC-MS analysis; format: ADME, Microsome; conditions: time < 65 min
[4] = molecular target: T3, Peroxisome proliferator-activated receptor delta (Homo sapiens, UniProt Q03181); assay: Agonist activity at PPARdelta (unknown origin)
T3 sequence (Q03181 whole entry): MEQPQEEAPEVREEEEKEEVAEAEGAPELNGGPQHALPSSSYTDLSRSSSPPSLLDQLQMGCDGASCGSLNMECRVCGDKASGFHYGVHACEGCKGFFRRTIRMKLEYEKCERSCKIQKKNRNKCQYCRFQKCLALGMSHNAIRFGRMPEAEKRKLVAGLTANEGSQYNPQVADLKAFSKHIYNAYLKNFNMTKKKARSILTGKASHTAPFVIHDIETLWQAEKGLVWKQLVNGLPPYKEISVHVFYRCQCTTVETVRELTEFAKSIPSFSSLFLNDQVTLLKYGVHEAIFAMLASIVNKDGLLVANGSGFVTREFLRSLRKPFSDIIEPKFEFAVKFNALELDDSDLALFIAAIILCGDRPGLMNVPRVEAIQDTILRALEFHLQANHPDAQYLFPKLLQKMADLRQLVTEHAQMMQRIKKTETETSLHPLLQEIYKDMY

[5] = Half life in rat; format: ADME; conditions: in vivo

| EC50 [1] | EC50 [2] | half-life [3] | EC50 [4] | half-life [5] | Structure (SMILES) |
| --- | --- | --- | --- | --- | --- |
| 1260 nM | 950 nM | 1.23 h | – | – | [2H]C([2H])(Cc1cn(S(=O)(=O)c2ccc(OC(F)(F)F)cc2)c2ccc(OC)cc12)C(=O)O |
| – | – | 1.12 h | – | – | [2H]C([2H])(Cc1cn(S(=O)(=O)c2ccc3c(c2)CCO3)c2ccc(OC)cc12)C(=O)O |
| 980 nM | – | 1.16 h | 850 nM | – | [2H]C([2H])(Cc1cn(S(=O)(=O)c2ccc(OC)cc2)c2ccc(OC)cc12)C(=O)O |
| – | – | 1.06 h | – | – | [2H]C([2H])(Cc1cn(S(=O)(=O)c2ccc(C3CC3)cc2)c2ccc(OC)cc12)C(=O)O |
| 1150 nM | – | 0.775 h | 940 nM | 1.4 h | COc1ccc(S(=O)(=O)n2cc(CCC(=O)O)c3cc(OC)ccc32)cc1 [INDEGLITAZAR] |
| 2520 nM | – | 1.14 h | 2970 nM | – | [2H]C([2H])(Cc1cn(S(=O)(=O)c2ccc(OC)cc2)c2ccc(C3CC3)cc12)C(=O)O |
